Target: CRBN-DDB1 (Homo sapiens (Human), UniProt Q96SW2)
Assay: CRBN-DDB1 fluorescence polarization (FP) binding assay
Details: displacement of (−)-Thalidomide-Alexa Fluor or Pomalidomide-fluorescein probe; 400 nM CRBN-DDB1, 5 nM probe, 60 min, room temperature
Description: Measuring compound ligand binding to CRBN-DDB1 was carried out using an established sensitive and quantitative in vitro fluorescence polarization (FP) based binding assay. […] Compounds were dispensed from serially diluted DMSO stock into black 384-well compatible fluorescence polarization plates using an Echo acoustic dispenser. Compound binding to CRBN-DDB1 was measured by displacement of either a (−)-Thalidomide-Alexa Fluor® or Pomalidomide-fluorescein conjugated probe dye. […] Matching control wells excluding CRBN-DDB1 were used to correct for background fluorescence. Plates were read on an Envision plate reader with appropriate FP filter sets. The corrected S (perpendicular) and P (parallel) values were used to calculate fluorescence polarization (FP) with the following equation: FP=1000*(S−G*P)/(S+G*P).

Sequence of CRBN-DDB1 (Q96SW2 whole entry): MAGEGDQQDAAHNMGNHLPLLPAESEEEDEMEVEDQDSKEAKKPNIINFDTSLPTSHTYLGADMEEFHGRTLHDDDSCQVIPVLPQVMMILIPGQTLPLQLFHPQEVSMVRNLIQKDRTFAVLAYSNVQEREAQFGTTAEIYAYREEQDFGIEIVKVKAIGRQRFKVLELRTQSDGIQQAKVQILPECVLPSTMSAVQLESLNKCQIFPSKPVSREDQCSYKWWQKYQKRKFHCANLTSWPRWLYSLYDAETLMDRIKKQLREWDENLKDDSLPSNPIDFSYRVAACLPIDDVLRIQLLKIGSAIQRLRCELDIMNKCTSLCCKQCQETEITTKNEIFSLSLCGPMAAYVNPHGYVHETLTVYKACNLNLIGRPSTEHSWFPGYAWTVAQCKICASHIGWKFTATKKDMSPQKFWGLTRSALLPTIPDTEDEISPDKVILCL
Sequence of CRBN-DDB1 (Q16531 whole entry partner): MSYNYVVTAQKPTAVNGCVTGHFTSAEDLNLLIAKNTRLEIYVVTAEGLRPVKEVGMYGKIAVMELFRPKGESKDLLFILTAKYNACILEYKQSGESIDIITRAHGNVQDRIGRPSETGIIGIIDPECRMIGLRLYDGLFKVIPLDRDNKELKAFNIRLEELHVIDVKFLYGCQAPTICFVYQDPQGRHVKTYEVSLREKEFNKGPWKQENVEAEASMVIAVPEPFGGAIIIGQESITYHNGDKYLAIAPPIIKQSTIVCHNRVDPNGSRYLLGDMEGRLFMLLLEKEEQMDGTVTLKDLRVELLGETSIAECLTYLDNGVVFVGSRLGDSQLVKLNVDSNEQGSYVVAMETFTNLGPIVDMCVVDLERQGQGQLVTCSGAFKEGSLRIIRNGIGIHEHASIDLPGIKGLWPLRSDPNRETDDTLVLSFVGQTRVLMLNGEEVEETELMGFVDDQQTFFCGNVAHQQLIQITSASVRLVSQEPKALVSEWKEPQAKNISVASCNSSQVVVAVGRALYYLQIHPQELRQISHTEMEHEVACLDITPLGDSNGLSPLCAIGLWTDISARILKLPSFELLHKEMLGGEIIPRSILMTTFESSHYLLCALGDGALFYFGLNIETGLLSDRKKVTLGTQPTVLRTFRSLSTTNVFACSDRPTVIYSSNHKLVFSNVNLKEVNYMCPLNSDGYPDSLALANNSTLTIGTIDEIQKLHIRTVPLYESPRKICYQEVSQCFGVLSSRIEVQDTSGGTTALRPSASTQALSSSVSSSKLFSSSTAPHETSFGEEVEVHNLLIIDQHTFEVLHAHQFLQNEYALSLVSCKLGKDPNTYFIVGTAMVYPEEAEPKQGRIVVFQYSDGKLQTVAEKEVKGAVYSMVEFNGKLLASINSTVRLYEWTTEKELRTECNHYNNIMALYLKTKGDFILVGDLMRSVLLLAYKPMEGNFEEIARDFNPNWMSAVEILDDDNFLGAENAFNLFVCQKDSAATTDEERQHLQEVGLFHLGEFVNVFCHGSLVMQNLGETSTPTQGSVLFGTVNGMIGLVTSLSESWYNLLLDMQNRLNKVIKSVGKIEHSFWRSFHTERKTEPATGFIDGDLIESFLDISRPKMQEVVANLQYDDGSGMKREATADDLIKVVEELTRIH

- Kd: 1 to 1000 µM
Compound: O=C1NC(=O)C2(CC2)CC1N1C(=O)c2ccccc2C1=O (stereo not shown) [Compound 3, 2-(4,6-dioxo-5-azaspiro[2.5]octan-7-yl)isoindoline-1,3-dione]

— patent US10646575B2, “Heterocyclic degronimers for target protein degradation” (C4 Therapeutics, Inc., priority 2016, dated 2020)
